# Key:
# HCT-116 = test: Antiproliferative activity against human HCT-116 cells measured after 72 hrs; assay type: functional, cell-based; conditions: HCT-116, 72 h
# MCF7 = test: Antiproliferative activity against human MCF7 cells measured after 72 hrs; assay type: functional, cell-based; conditions: MCF7, 72 h
# SW480 = test: Antiproliferative activity against human SW480 cells measured after 72 hrs; assay type: functional, cell-based; conditions: SW480, 72 h
# A549 = test: Antiproliferative activity against human A549 cells measured after 72 hrs; assay type: functional, cell-based; conditions: A549, 72 h
# [1] = Cytotoxicity against human L02 cells measured after 72 hrs
# Histone deacetylase 1 = Histone deacetylase 1 (Homo sapiens, UniProt Q13547); test: Inhibition of HDAC1 (unknown origin)
# Histone deacetylase 2 = Histone deacetylase 2 (Homo sapiens, UniProt Q92769); test: Inhibition of HDAC2 (unknown origin)
# Histone deacetylase 3 = Histone deacetylase 3 (Homo sapiens, UniProt O15379); test: Inhibition of HDAC3 (unknown origin)
# [2] = biological target: T1, Protein deacetylase HDAC6 (Homo sapiens, UniProt Q9UBN7); test: Inhibition of HDAC6 (unknown origin)
# T1 sequence (Q9UBN7 whole entry): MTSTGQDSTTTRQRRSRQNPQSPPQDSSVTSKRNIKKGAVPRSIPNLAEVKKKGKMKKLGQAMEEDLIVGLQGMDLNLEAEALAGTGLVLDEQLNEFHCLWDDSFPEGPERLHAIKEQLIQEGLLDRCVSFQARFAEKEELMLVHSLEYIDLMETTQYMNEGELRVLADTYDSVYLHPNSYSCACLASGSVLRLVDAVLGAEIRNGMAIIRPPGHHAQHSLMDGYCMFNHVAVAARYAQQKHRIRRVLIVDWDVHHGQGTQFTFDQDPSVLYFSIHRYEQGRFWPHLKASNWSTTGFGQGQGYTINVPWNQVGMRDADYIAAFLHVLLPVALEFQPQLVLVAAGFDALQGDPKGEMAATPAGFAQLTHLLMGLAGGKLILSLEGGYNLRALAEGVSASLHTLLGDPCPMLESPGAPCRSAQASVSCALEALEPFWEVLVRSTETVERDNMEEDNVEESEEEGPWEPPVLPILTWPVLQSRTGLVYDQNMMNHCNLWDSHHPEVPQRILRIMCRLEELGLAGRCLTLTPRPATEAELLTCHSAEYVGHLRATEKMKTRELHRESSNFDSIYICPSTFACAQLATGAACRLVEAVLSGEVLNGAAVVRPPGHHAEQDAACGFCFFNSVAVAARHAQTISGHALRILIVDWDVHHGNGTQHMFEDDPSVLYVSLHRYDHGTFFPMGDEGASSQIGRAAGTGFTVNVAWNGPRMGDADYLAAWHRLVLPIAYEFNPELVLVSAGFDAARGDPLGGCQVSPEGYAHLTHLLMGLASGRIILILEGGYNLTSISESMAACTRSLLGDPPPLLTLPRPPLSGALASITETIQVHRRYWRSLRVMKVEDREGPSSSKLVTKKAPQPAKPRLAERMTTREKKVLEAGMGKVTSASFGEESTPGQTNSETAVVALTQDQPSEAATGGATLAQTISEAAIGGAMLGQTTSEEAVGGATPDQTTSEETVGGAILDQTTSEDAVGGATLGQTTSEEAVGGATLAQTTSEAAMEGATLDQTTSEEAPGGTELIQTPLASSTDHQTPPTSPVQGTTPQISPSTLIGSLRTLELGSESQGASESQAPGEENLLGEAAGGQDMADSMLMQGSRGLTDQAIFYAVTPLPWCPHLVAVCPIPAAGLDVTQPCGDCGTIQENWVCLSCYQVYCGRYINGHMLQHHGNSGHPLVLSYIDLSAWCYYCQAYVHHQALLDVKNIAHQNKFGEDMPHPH
# Histone deacetylase 8 = biological target: T2, Histone deacetylase 8 (Homo sapiens, UniProt Q9BY41); test: Inhibition of HDAC8 (unknown origin)
# T2 sequence (Q9BY41 whole entry): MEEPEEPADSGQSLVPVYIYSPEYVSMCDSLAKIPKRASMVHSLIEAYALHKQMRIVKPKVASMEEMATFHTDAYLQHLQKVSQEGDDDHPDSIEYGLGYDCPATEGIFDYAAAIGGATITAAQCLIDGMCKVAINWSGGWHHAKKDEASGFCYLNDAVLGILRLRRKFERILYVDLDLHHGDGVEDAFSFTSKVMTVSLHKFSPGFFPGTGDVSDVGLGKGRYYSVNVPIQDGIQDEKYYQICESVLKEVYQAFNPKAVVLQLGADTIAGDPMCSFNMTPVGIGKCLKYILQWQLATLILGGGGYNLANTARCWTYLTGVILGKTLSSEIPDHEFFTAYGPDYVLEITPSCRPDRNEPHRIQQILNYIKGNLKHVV
# Histone deacetylase 3, sequence (O15379 whole entry): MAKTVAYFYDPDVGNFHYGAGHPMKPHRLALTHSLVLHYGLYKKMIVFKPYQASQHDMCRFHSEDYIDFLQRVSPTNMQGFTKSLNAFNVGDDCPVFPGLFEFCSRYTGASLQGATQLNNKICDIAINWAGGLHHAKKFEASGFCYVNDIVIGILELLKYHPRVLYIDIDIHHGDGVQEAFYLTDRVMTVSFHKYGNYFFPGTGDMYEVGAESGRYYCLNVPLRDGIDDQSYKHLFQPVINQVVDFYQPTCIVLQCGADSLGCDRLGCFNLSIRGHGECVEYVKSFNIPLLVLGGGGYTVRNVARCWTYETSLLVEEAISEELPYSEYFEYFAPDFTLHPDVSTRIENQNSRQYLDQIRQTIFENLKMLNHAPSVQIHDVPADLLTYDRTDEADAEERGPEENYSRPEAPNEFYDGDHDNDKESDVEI
# Histone deacetylase 1, sequence (Q13547 whole entry): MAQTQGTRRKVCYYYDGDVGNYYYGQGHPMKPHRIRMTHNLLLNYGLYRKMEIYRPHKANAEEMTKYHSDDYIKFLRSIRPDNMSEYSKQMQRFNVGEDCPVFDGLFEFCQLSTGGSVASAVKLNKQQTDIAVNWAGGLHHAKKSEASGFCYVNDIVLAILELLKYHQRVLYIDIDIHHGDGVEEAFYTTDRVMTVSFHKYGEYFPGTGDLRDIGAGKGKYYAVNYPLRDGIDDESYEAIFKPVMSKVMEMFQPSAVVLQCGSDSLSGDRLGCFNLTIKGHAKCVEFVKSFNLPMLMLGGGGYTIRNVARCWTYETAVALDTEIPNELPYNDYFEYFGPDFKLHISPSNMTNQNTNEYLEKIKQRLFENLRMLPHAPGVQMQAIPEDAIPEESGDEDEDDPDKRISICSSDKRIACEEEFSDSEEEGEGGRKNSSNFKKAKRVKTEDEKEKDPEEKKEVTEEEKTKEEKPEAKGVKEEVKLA
# Histone deacetylase 2, sequence (Q92769 whole entry): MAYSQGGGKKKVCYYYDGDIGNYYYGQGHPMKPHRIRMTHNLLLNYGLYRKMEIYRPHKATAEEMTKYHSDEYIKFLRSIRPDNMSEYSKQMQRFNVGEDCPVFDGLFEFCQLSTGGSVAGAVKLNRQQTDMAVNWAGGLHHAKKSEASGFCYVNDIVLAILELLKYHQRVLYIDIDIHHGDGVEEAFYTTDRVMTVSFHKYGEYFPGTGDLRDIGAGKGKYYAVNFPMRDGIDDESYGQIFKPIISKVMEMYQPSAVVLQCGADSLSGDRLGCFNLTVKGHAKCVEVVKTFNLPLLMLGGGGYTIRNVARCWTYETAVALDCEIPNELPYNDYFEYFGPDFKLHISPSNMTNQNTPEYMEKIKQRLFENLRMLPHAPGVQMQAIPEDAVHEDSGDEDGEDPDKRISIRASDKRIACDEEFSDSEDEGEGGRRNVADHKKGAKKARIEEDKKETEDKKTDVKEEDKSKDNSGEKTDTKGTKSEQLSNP
Structure (SMILES),IC50 (HCT-116),IC50 (MCF7),IC50 (SW480),other results
COc1cc(OCC(=O)NO)ccc1CNCCc1c[nH]c2ccccc12,> 10 µM,> 10 µM,,
O=C(COc1ccc(CN2CC=C(c3c[nH]c4cccc(F)c34)CC2)c(F)c1)NO,1.22 µM,,5.56 µM,
Cc1[nH]c2ccccc2c1C1=CCN(Cc2ccc(OCC(=O)NO)cc2F)CC1,1.22 µM,,1.6 µM,
COc1cc(OCC(=O)NO)ccc1CNCCn1cnc2ccccc21,> 10 µM,> 10 µM,,
O=C(COc1ccc(C(=O)N2CC=C(c3c[nH]c4ccc(F)cc34)CC2)cc1)NO,> 5 µM,,> 5 µM,
O=C(COc1ccc(CN2CC=C(c3c[nH]c4ccc(F)cc34)CC2)c(F)c1)NO,> 5 µM,,3.86 µM,
Cc1[nH]c2ccccc2c1C1=CCC(NC(=O)c2ccc(OCC(=O)NO)cc2)CC1 (configuration not stated),> 5 µM,,> 5 µM,

# More lines, main results first:
IC50 (HCT-116),IC50 (MCF7),IC50 (SW480),Structure (SMILES),other results
0.162 µM,0.155 µM,,O=C(COc1ccc(CNCCc2c[nH]c3ccccc23)cc1F)NO,
0.261 µM,1.42 µM,0.179 µM,O=C(COc1ccc(CNC2CC=C(c3c[nH]c4ccc(F)cc34)CC2)c(F)c1)NO (configuration not stated),IC50 (A549): 0.304 µM
0.184 µM,0.898 µM,0.367 µM,Cc1[nH]c2ccccc2c1C1=CCC(NCc2ccc(OCC(=O)NO)cc2)CC1 (configuration not stated),IC50 (A549): 0.187 µM
0.173 µM,0.915 µM,0.189 µM,O=C(COc1ccc(CNC2CC=C(c3c[nH]c4cccc(F)c34)CC2)c(F)c1)NO (configuration not stated),IC50 (A549): 0.203 µM
2.61 µM,2.33 µM,,O=C(COc1cccc(CNCCc2c[nH]c3ccccc23)c1)NO,
1.41 µM,,1.49 µM,O=C(COc1ccc(C(=O)N2CC=C(c3c[nH]c4cccc(F)c34)CC2)cc1)NO,
0.445 µM,,2.78 µM,Cc1ccc2[nH]cc(C3=CCC(NCc4ccc(OCC(=O)NO)cc4F)CC3)c2c1 (configuration not stated),
0.046 µM,0.077 µM,,O=C(COc1ccc(CNCCc2c[nH]c3ccccc23)c(F)c1)NO,IC50 at 72 h [1]: 1.56 µM; IC50 (Histone deacetylase 1): 0.0021 µM; IC50 (Histone deacetylase 2): 0.0031 µM; IC50 (Histone deacetylase 3): 0.0063 µM; IC50 [2]: 0.014 µM; IC50 (Histone deacetylase 8): 0.09 µM

# Source: ChEMBL document CHEMBL5113441, “Exploration of 4-(1H-indol-3-yl)cyclohex-3-en-1-amine analogues as HDAC inhibitors: Design, synthesis, biological evaluation and modelling studies” (Bioorg Med Chem Lett, 2022)
